Test results: the supplement of paper PMC11451515

Tested on: SEM cells
Assay: cell viability relative to DMSO control; higher = less cytotoxic
Conditions: 48 h
Procedure, shortened: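 NOMO1, SEM and P12-Ichikawa leukemia cells spent at least four passages adapting to each medium before use. They were seeded at 500 cells/well (NOMO1, SEM) or 1000 cells/well (P12-Ichikawa) in 5 μl in 1536-well plates and pin-dosed with library compounds in DMSO at 11 threefold steps from 47 μM down to 0.79 nM. After 48 h at 37°C, CellTiter-Glo One luminescence was read. Viability is reported as a percentage of the DMSO wells on each plate, with cell-free wells as background.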

[1] = HPLM + 10% dialyzed FBS, 0.000781 µM
[2] = HPLM + 10% dialyzed FBS, 0.00234 µM
[3] = HPLM + 10% dialyzed FBS, 0.00702 µM
[4] = HPLM + 10% dialyzed FBS, 0.0211 µM
[5] = HPLM + 10% dialyzed FBS, 0.0632 µM
[6] = HPLM + 10% dialyzed FBS, 0.19 µM
[7] = HPLM + 10% dialyzed FBS, 0.569 µM
[8] = HPLM + 10% dialyzed FBS, 1.71 µM
[9] = HPLM + 10% dialyzed FBS, 5.12 µM
[10] = HPLM + 10% dialyzed FBS, 15.4 µM
[11] = HPLM + 10% dialyzed FBS, 46.1 µM
[12] = RPMI 5 mM glucose + 10% FBS, 0.000781 µM
[13] = RPMI 5 mM glucose + 10% FBS, 0.00234 µM
[14] = RPMI 5 mM glucose + 10% FBS, 0.00702 µM
[15] = RPMI 5 mM glucose + 10% FBS, 0.0211 µM
[16] = RPMI 5 mM glucose + 10% FBS, 0.0632 µM
[17] = RPMI 5 mM glucose + 10% FBS, 0.19 µM
[18] = RPMI 5 mM glucose + 10% FBS, 0.569 µM
[19] = RPMI 5 mM glucose + 10% FBS, 1.71 µM
[20] = RPMI 5 mM glucose + 10% FBS, 5.12 µM
[21] = RPMI 5 mM glucose + 10% FBS, 15.4 µM
[22] = RPMI 5 mM glucose + 10% FBS, 46.1 µM
[23] = RPMI 5 mM glucose + 10% dialyzed FBS, 0.000781 µM
[24] = RPMI 5 mM glucose + 10% dialyzed FBS, 0.00234 µM
[25] = RPMI 5 mM glucose + 10% dialyzed FBS, 0.00702 µM
[26] = RPMI 5 mM glucose + 10% dialyzed FBS, 0.0211 µM
[27] = RPMI 5 mM glucose + 10% dialyzed FBS, 0.0632 µM
[28] = RPMI 5 mM glucose + 10% dialyzed FBS, 0.19 µM
[29] = RPMI 5 mM glucose + 10% dialyzed FBS, 0.569 µM
[30] = RPMI 5 mM glucose + 10% dialyzed FBS, 1.71 µM
[31] = RPMI 5 mM glucose + 10% dialyzed FBS, 5.12 µM
[32] = RPMI 5 mM glucose + 10% dialyzed FBS, 15.4 µM
[33] = RPMI 5 mM glucose + 10% dialyzed FBS, 46.1 µM

Structure (SMILES)	cell viability [1]	cell viability [2]	cell viability [3]	cell viability [4]	cell viability [5]	cell viability [6]	cell viability [7]	cell viability [8]	cell viability [9]	cell viability [10]	cell viability [11]	cell viability [12]	cell viability [13]	cell viability [14]	cell viability [15]	cell viability [16]	cell viability [17]	cell viability [18]	cell viability [19]	cell viability [20]	cell viability [21]	cell viability [22]	cell viability [23]	cell viability [24]	cell viability [25]	cell viability [26]	cell viability [27]	cell viability [28]	cell viability [29]	cell viability [30]	cell viability [31]	cell viability [32]	cell viability [33]
CNC1CCC(N(Cc2cccc(-c3ccncc3)c2)C(=O)c2sc3ccccc3c2Cl)CC1 (centres undefined)	86.2%	93.2%	104%	90.6%	87.9%	105%	95.5%	25.6%	4.92%	3.48%	2.45%	90.1%	83.7%	100%	114%	88.5%	97.4%	18.2%	6.65%	5.64%	3.32%	1.88%	76.6%	82.9%	95.5%	98.5%	77.7%	99.1%	81.6%	6.38%	5.65%	3.68%	2.48%
CC(=O)O.Cc1c(-c2ccc(O)cc2)n(Cc2ccc(OCCN3CCCCCC3)cc2)c2ccc(O)cc12	88.5%	50%	91.9%	92%	99.7%	112%	102%	101%	93.5%	117%	99.5%	92%	46.9%	89%	98.7%	86.6%	95.4%	89.2%	95.5%	86.9%	92.5%	94.4%	90.2%	41.7%	93.8%	99.6%	81.2%	102%	101%	94.1%	110%	119%	101%
COC[C@H]1OC(=O)C2=COC3=C2[C@@]1(C)\C4=C(C5CCC(=O)[C@@]5(C)C[C@H]4OC(C)=O)/C3=O (some centres undefined)	72.1%	84.9%	96.8%	17.5%	99.5%	93%	93.6%	95.6%	85.6%	82%	95.3%	90.8%	107%	101%	14.7%	109%	102%	107%	111%	81.5%	92.2%	80.3%	89.2%	84.6%	88.9%	16.4%	88.6%	85.1%	94.8%	82.9%	77.1%	63.5%	50.9%
CCc1cncnc1N1CCN(Cc2nc3cc(C(F)(F)F)ccc3[nH]2)CC1	107%	104%	111%	101%	106%	105%	105%	97.1%	88.2%	62.4%	35.5%	93.8%	109%	106%	99.9%	101%	108%	96.2%	94.7%	84.3%	62%	23.7%	73.3%	112%	111%	109%	103%	105%	81.2%	98.2%	84.4%	60.8%	22.1%
COC(=O)Nc1nc2cc(C(=O)c3cccs3)ccc2[nH]1	102%	71.5%	94.1%	48.1%	28.1%	30.4%	24.9%	28%	25.8%	28.9%	19.8%	95.6%	46.7%	88%	37%	15.3%	15.1%	17.5%	14.8%	13.9%	14.3%	14.2%	111%	69%	94.4%	51.8%	24.7%	25.5%	22.3%	27.2%	26%	26.6%	22.2%
COc1cc2c(cc1-c1c(C)noc1C)ncc1[nH]c(=O)n([C@H](C)c3ccccn3)c12	–	–	–	–	–	–	–	–	–	–	–	117%	106%	140%	120%	119%	114%	102%	65.4%	8.34%	6.3%	3.15%	101%	94.8%	110%	119%	101%	96.1%	76.5%	49.7%	6.42%	6.4%	3.1%
CCC(C)SSc1ncc[nH]1 (centres undefined)	87.4%	90.2%	107%	101%	91%	97.5%	89%	36.2%	81.9%	57.8%	7.14%	93.9%	91.5%	88.7%	102%	92.7%	109%	93.8%	17.7%	82.9%	29.9%	6.98%	85.7%	75.8%	83.2%	83.9%	89.8%	108%	78.8%	27.2%	73.6%	10.3%	6.57%
CCN(CC)CC#CCOC(=O)C(O)(c1ccccc1)C1CCCCC1 (centres undefined)	108%	109%	98.1%	92.4%	115%	111%	124%	121%	105%	129%	98.5%	108%	117%	126%	80%	115%	121%	118%	120%	125%	104%	102%	117%	112%	145%	83.3%	126%	132%	142%	120%	135%	129%	99.3%
O=C(OC)[C@]12CC[C@@]3(C)[C@]4(C)CC[C@H]5[C@@](C)(C)C(=O)C(=C[C@]5(C)C4=CC(=O)[C@@H]3[C@@H]2C[C@](C)(C)CC1)C#N	92.6%	83.3%	100%	101%	104%	99.7%	98.1%	107%	81%	3.9%	4.06%	101%	91.8%	112%	94.6%	110%	97.4%	101%	99.7%	109%	3.61%	4.26%	82%	87.2%	90.8%	92.6%	109%	102%	103%	77.4%	73.6%	3.1%	3.38%
CC/1=C/C(=O)N(O)/C(=C1)C2CCCCC2	82.9%	89.7%	119%	111%	116%	106%	126%	126%	117%	50.8%	12.6%	113%	111%	135%	124%	129%	143%	140%	147%	101%	55.3%	14.2%	92.9%	94.4%	126%	117%	122%	147%	140%	144%	113%	56.4%	14.4%
CC[C@H](CC#N)OC(=O)N[C@@H](C)c1cccc(NC(=O)Nc2ccc(-c3cnco3)c(OC)c2)c1	105%	98.7%	111%	119%	118%	86.2%	71.8%	74.8%	44.5%	30.3%	31.6%	108%	112%	114%	118%	112%	96%	76.3%	68%	47.7%	30.2%	18.1%	107%	110%	124%	105%	105%	112%	100%	99.6%	67.9%	43.3%	38.7%
COc1ccc(Cc2ccc(NC(N)=O)cc2)cc1-c1cccc(Cl)c1	106%	104%	110%	95.4%	122%	123%	106%	119%	120%	122%	106%	100%	102%	101%	117%	110%	113%	113%	115%	113%	115%	103%	107%	111%	113%	123%	124%	122%	108%	111%	120%	108%	87.3%
C/C=C(/C)C(=O)O[C@H]1C(C)=C2[C@H]([C@@H]1OC(=O)CCCCCCC)[C@@](C)(OC(C)=O)C[C@H](OC(=O)CCC)[C@@]1(O)[C@H]2OC(=O)[C@@]1(C)O	95%	112%	111%	101%	57%	13.1%	8.77%	7.59%	7.07%	6.17%	6.69%	105%	112%	113%	85.7%	23.8%	10.4%	6.8%	6.65%	7.69%	5.62%	6.01%	107%	138%	114%	82.7%	33.8%	9.51%	7.63%	5.08%	4.94%	3.37%	3.69%
CC(N[C@H]1C[C@@H]1c1ccccc1)c1ccc2c(c1)OCCO2 (some centres undefined)	111%	135%	116%	122%	110%	122%	126%	126%	141%	116%	109%	99.3%	95.1%	94.7%	97.7%	107%	100%	108%	110%	107%	98.4%	93.5%	121%	123%	100%	121%	110%	134%	138%	111%	119%	119%	92.6%
COc1ccc(CC2NCCc3cc(OC)c(OC)cc32)cc1OC (centres undefined)	89.6%	93%	86.6%	85.3%	65.7%	94.2%	93.3%	93.7%	88.4%	79.5%	15.4%	85.2%	84%	82.2%	97.4%	82.4%	99.1%	88.5%	93.5%	97.5%	47%	12.8%	85.9%	78.6%	90.7%	87.3%	71.4%	98.2%	105%	99.9%	95.2%	66.8%	19.3%
